# Assay results reported in paper PMC4102531, “Pharmacologic Inhibition of Sphingomyelin Synthase (SMS) Activity Reduces Apolipoprotein-B Secretion from Hepatocytes and Attenuates Endotoxin-Mediated Macrophage Inflammation” (PLoS ONE, 2014).
# Target: T1, SMS2 (sphingomyelin synthase 2) (Mus musculus, UniProt Q9D4B1)
# T1 construct: gene Sgms2; native enzyme in liver homogenate of SMS1 KO mice
# T1 sequence (Q9D4B1 1-365): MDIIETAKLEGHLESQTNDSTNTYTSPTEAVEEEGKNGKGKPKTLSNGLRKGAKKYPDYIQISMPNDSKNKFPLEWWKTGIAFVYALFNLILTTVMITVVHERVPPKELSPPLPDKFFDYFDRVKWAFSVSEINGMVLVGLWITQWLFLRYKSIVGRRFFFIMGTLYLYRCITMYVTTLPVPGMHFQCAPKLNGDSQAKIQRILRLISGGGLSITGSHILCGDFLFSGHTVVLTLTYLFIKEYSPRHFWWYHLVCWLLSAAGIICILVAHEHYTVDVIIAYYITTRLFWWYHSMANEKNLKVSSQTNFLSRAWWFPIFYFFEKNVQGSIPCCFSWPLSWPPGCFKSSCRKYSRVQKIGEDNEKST
# Test: SMS activity assay in SMS1 KO mouse liver homogenate
# Format: cell-based
smiles,measurement,value
"N#CC(Nc1ccccc1)c1ccccc1OCc1ccccc1 (stereo not shown) [Dy105, 2-(2-(benzyloxy)phenyl)-2-(phenylamino) acetonitrile]",SMS activity assay in SMS1 KO mouse liver homogenate,we found the compound can inhibit SMS2 but not SMS1 activity (Fig. 3A and B) in the liver
